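Step 1: Grow cells in 96-well plates. Step 2: Expose to compound for 48 hours at 5 concentrations. Step 3: Interpolate endpoints linearly; if unreached, use highest concentration. GI50 is the concentration that inhibits growth by half. TGI denotes the concentration required for complete inhibition of growth.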
Assays:
Assay in all cases: NCI-60 cell line screen, 48 h
MALME-3M melanoma = system: MALME-3M melanoma
BT-549 breast = system: BT-549 breast
UACC-62 melanoma = system: UACC-62 melanoma
IGROV1 ovarian = system: IGROV1 ovarian
SF-295 CNS = system: SF-295 CNS
UO-31 renal = system: UO-31 renal
SNB-19 CNS = system: SNB-19 CNS
OVCAR-5 ovarian = system: OVCAR-5 ovarian
HCT-116 colon = system: HCT-116 colon
MDA-MB-435 = system: MDA-MB-435
HCT-15 colon = system: HCT-15 colon
NCI-H460 lung = system: NCI-H460 lung
SNB-75 CNS = system: SNB-75 CNS
MDA-MB-231 breast = system: MDA-MB-231 breast
SK-MEL-28 melanoma = system: SK-MEL-28 melanoma
M14 melanoma = system: M14 melanoma
PC-3 prostate = system: PC-3 prostate
SF-268 CNS = system: SF-268 CNS
NCI/ADR-RES ovarian = system: NCI/ADR-RES ovarian
RPMI-8226 leukemia = system: RPMI-8226 leukemia
786-0 renal = system: 786-0 renal
UACC-257 melanoma = system: UACC-257 melanoma
NCI-H522 lung = system: NCI-H522 lung
SK-MEL-2 melanoma = system: SK-MEL-2 melanoma
TK-10 renal = system: TK-10 renal
SW-620 colon = system: SW-620 colon
OVCAR-4 ovarian = system: OVCAR-4 ovarian

Clc1ccc2oc3c(NCCCn4ccnc4)c4ccccc4nc3c2c1
GI50 (MALME-3M melanoma): 39.2 µM | TGI (MALME-3M melanoma): > 100 µM | GI50 (BT-549 breast): 16.9 µM | TGI (BT-549 breast): 51.4 µM | GI50 (UACC-62 melanoma): 19.2 µM | TGI (UACC-62 melanoma): 45.5 µM | GI50 (IGROV1 ovarian): 21.9 µM | TGI (IGROV1 ovarian): > 100 µM | GI50 (SF-295 CNS): 17.9 µM | TGI (SF-295 CNS): 66.6 µM | GI50 (UO-31 renal): 13.2 µM | TGI (UO-31 renal): 67.4 µM | GI50 (SNB-19 CNS): 27.8 µM | TGI (SNB-19 CNS): > 100 µM | GI50 (OVCAR-5 ovarian): 24.9 µM | TGI (OVCAR-5 ovarian): > 100 µM | GI50 (HCT-116 colon): 4.48 µM | TGI (HCT-116 colon): 31.3 µM | GI50 (MDA-MB-435): 25.9 µM | TGI (MDA-MB-435): > 100 µM | GI50 (HCT-15 colon): 11.7 µM | TGI (HCT-15 colon): > 100 µM | GI50 (NCI-H460 lung): 5.26 µM | TGI (NCI-H460 lung): 21.4 µM | GI50 (SNB-75 CNS): 20.4 µM | TGI (SNB-75 CNS): > 100 µM | GI50 (MDA-MB-231 breast): 17.5 µM | TGI (MDA-MB-231 breast): > 100 µM | GI50 (SK-MEL-28 melanoma): 34.4 µM | TGI (SK-MEL-28 melanoma): > 100 µM | GI50 (M14 melanoma): 28 µM | TGI (M14 melanoma): > 100 µM | GI50 (PC-3 prostate): 24.9 µM | TGI (PC-3 prostate): > 100 µM | GI50 (SF-268 CNS): 15.2 µM | TGI (SF-268 CNS): > 100 µM | GI50 (NCI/ADR-RES ovarian): 7.77 µM | TGI (NCI/ADR-RES ovarian): > 100 µM | GI50 (RPMI-8226 leukemia): 16.5 µM | TGI (RPMI-8226 leukemia): 55.9 µM | GI50 (786-0 renal): 16.3 µM | TGI (786-0 renal): > 100 µM | GI50 (UACC-257 melanoma): 39.9 µM | TGI (UACC-257 melanoma): > 100 µM | GI50 (NCI-H522 lung): 15 µM | TGI (NCI-H522 lung): > 100 µM | GI50 (SK-MEL-2 melanoma): > 100 µM | TGI (SK-MEL-2 melanoma): > 100 µM | GI50 (TK-10 renal): 79 µM | TGI (TK-10 renal): > 100 µM | GI50 (SW-620 colon): 5.13 µM | TGI (SW-620 colon): > 100 µM | GI50 (OVCAR-4 ovarian): 11.8 µM

From PubChem BioAssay (NCI)
